What was measured:
Assay in all cases: Kinase inhibitor library screening, PrestoBlue cell viability, 1 or 10 μM, 72 h
[1] = system: 501Mel-XP cells (Vemurafenib-resistant); conditions: 72 h; for viability at 1 µM / viability at 10 µM: Homo sapiens; for viability at 1 µM: read-out: cell viability, 501Mel XP, 1μΜ; for viability at 10 µM: read-out: cell viability, 501Mel XP, 10μΜ
Protocol: (§1) After 72 h of treatment, cell viability was assessed using the PrestoBlue Cell Viability Reagent (ThermoFisher Scientific). Measurements were performed with the CLARIOstar Monochromator microplate reader (BMG Labtech).
(§2) Kinase inhibitor library screening. […] Each cell line was treated in its sensitive form (parental), and also as 2 resistant derivatives, which were made resistant to either Vemurafenib (XP) or Dabrafenib (GP). Drugs were added at 2 different concentrations, 1 and 10 μM, for 72 h and cell viability was assessed using the PrestoBlue Cell Viability assay. Results are depicted as % viability compared to untreated cells. Each cell line was analyzed at least in duplicate. […] (XLSX 95 kb)

A375 cells (parental) = conditions: for viability at 1 µM / viability at 10 µM: Homo sapiens, A-375, 72 h; for viability at 1 µM: read-out: cell viability, A375 Parental, 1μΜ; for viability at 10 µM: read-out: cell viability, A375 Parental, 10μΜ
Protocol: as §1, §2

[2] = system: IGR37-XP cells (Vemurafenib-resistant); conditions: for viability at 1 µM / viability at 10 µM: Homo sapiens, IGR-37, 72 h; for viability at 1 µM: read-out: cell viability, IGR37 XP, 1μΜ; for viability at 10 µM: read-out: cell viability, IGR37 XP, 10μΜ
Protocol: as §1, §2

501Mel cells (parental) = conditions: 72 h; for viability at 1 µM / viability at 10 µM: Homo sapiens; for viability at 1 µM: read-out: cell viability, 501Mel Parental, 1μΜ; for viability at 10 µM: read-out: cell viability, 501Mel Parental, 10μΜ
Protocol: as §1, §2

[3] = system: 501Mel-GP cells (Dabrafenib-resistant); conditions: 72 h; for viability at 1 µM / viability at 10 µM: Homo sapiens; for viability at 1 µM: read-out: cell viability, 501Mel GP, 1μΜ; for viability at 10 µM: read-out: cell viability, 501Mel GP, 10μΜ
Protocol: as §1, §2

[4] = system: IGR37-GP cells (Dabrafenib-resistant); conditions: for viability at 1 µM / viability at 10 µM: Homo sapiens, IGR-37, 72 h; for viability at 1 µM: read-out: cell viability, IGR37 GP, 1μΜ; for viability at 10 µM: read-out: cell viability, IGR37 GP, 10μΜ
Protocol: as §1, §2

[5] = system: A375-XP cells (Vemurafenib-resistant); conditions: for viability at 1 µM / viability at 10 µM: Homo sapiens, A-375, 72 h; for viability at 1 µM: read-out: cell viability, A375 XP, 1μΜ; for viability at 10 µM: read-out: cell viability, A375 XP, 10μΜ
Protocol: as §1, §2

[6] = system: A375-GP cells (Dabrafenib-resistant); conditions: for viability at 1 µM / viability at 10 µM: Homo sapiens, A-375, 72 h; for viability at 1 µM: read-out: cell viability, A375 GP, 1μΜ; for viability at 10 µM: read-out: cell viability, A375 GP, 10μΜ
Protocol: as §1, §2

IGR37 cells (parental) = conditions: for viability at 1 µM / viability at 10 µM: Homo sapiens, IGR-37, 72 h; for viability at 1 µM: read-out: cell viability, IGR37 Parental, 1μΜ; for viability at 10 µM: read-out: cell viability, IGR37 Parental, 10μΜ
Protocol: as §1, §2

Structure (SMILES): COc1cc2ncnc(Nc3cccc(Cl)c3)c2cc1OC [AG-1478 (Tyrphostin AG-1478)]
- cell viability, 501Mel XP, 1μΜ ([1]; 501Mel XP, 1μΜ, in %): 86.2
- cell viability, 501Mel XP, 10μΜ ([1]; 501Mel XP, 10μΜ, in %): 48.5
- cell viability, A375 Parental, 10μΜ (A375 cells (parental); A375 Parental, 10μΜ, 72 h, in %): 94.0
- cell viability, IGR37 XP, 10μΜ ([2]; IGR37 XP, 10μΜ, 72 h): 46.3%
- cell viability, IGR37 XP, 1μΜ ([2]; IGR37 XP, 1μΜ, 72 h, in %): 76.6
- cell viability, 501Mel Parental, 1μΜ (501Mel cells (parental); 501Mel Parental, 1μΜ, in %): 96.5
- cell viability, 501Mel Parental, 10μΜ (501Mel cells (parental); 501Mel Parental, 10μΜ, in %): 70.7
- cell viability, 501Mel GP, 1μΜ ([3]; 501Mel GP, 1μΜ, in %): 102.7
- cell viability, 501Mel GP, 10μΜ ([3]; 501Mel GP, 10μΜ, in %): 55.4
- cell viability, IGR37 GP, 10μΜ ([4]; IGR37 GP, 10μΜ, 72 h): 86.3%
- cell viability, IGR37 GP, 1μΜ ([4]; IGR37 GP, 1μΜ, 72 h, in %): 88.5
- cell viability, A375 XP, 1μΜ ([5]; A375 XP, 1μΜ, 72 h, in %): 99.5
- cell viability, A375 XP, 10μΜ ([5]; A375 XP, 10μΜ, 72 h, in %): 98.9
- cell viability, A375 GP, 1μΜ ([6]; A375 GP, 1μΜ, 72 h, in %): 91.6
- cell viability, A375 GP, 10μΜ ([6]; A375 GP, 10μΜ, 72 h, in %): 90.4
- cell viability, IGR37 Parental, 1μΜ (IGR37 cells (parental); IGR37 Parental, 1μΜ, 72 h, in %): 96.0
- cell viability, IGR37 Parental, 10μΜ (IGR37 cells (parental); IGR37 Parental, 10μΜ, 72 h, in %): 98.8

Structure (SMILES): Cc1csc(-c2nnc(Nc3ccc(Oc4ncccc4-c4ccnc(N)n4)cc3)c3ccccc23)c1 [AMG 900]
- cell viability (kinase inhibitor library screening) ([1]; 501Mel XP, 1μΜ): 77.2%
- cell viability (kinase inhibitor library screening) ([1]; 501Mel XP, 10μΜ): 59.1%
- cell viability (kinase inhibitor library screening) (A375 cells (parental); A375 Parental, 10μΜ, 72 h): 30.4%
- cell viability (kinase inhibitor library screening) (A375 cells (parental); A375 Parental, 1μΜ, 72 h): 46.4%
- cell viability (kinase inhibitor library screening) ([2]; IGR37 XP, 1μΜ, 72 h): 100.0%
- cell viability (kinase inhibitor library screening) ([2]; IGR37 XP, 10μΜ, 72 h): 66.5%
- cell viability (kinase inhibitor library screening) (501Mel cells (parental); 501Mel Parental, 1μΜ): 87.5%
- cell viability (kinase inhibitor library screening) (501Mel cells (parental); 501Mel Parental, 10μΜ): 70.0%
- cell viability (kinase inhibitor library screening) ([3]; 501Mel GP, 1μΜ): 90.4%
- cell viability (kinase inhibitor library screening) ([3]; 501Mel GP, 10μΜ): 60.6%
- cell viability (kinase inhibitor library screening) ([4]; IGR37 GP, 10μΜ, 72 h): 79.9%
- cell viability (kinase inhibitor library screening) ([5]; A375 XP, 1μΜ, 72 h): 52.6%
- cell viability (kinase inhibitor library screening) ([5]; A375 XP, 10μΜ, 72 h): 47.5%
- cell viability (kinase inhibitor library screening) ([6]; A375 GP, 1μΜ, 72 h): 44.4%
- cell viability (kinase inhibitor library screening) ([6]; A375 GP, 10μΜ, 72 h): 34.7%
- cell viability (kinase inhibitor library screening) (IGR37 cells (parental); IGR37 Parental, 1μΜ, 72 h): 94.6%
- cell viability (kinase inhibitor library screening) (IGR37 cells (parental); IGR37 Parental, 10μΜ, 72 h): 78.1%

Structure (SMILES): O=C1NC(=O)[C@@H](c2cn3c4c(cccc24)CCC3)[C@@H]1c1c[nH]c2ccccc12 [ARQ 197 (Tivantinib)]
- cell viability (kinase inhibitor library screening) ([1]; 501Mel XP, 1μΜ): 25.8%
- cell viability (kinase inhibitor library screening) ([1]; 501Mel XP, 10μΜ): 10.6%
- cell viability (kinase inhibitor library screening) (A375 cells (parental); A375 Parental, 10μΜ, 72 h): 29.2%
- cell viability (kinase inhibitor library screening) (A375 cells (parental); A375 Parental, 1μΜ, 72 h): 26.4%
- cell viability (kinase inhibitor library screening) ([2]; IGR37 XP, 1μΜ, 72 h): 69.4%
- cell viability (kinase inhibitor library screening) ([2]; IGR37 XP, 10μΜ, 72 h): 43.0%
- cell viability (kinase inhibitor library screening) (501Mel cells (parental); 501Mel Parental, 1μΜ): 52.2%
- cell viability (kinase inhibitor library screening) (501Mel cells (parental); 501Mel Parental, 10μΜ): 26.1%
- cell viability (kinase inhibitor library screening) ([3]; 501Mel GP, 1μΜ): 40.8%
- cell viability (kinase inhibitor library screening) ([3]; 501Mel GP, 10μΜ): 25.6%
- cell viability (kinase inhibitor library screening) ([4]; IGR37 GP, 1μΜ, 72 h): 85.1%
- cell viability (kinase inhibitor library screening) ([4]; IGR37 GP, 10μΜ, 72 h): 73.0%
- cell viability (kinase inhibitor library screening) ([5]; A375 XP, 1μΜ, 72 h): 34.5%
- cell viability (kinase inhibitor library screening) ([5]; A375 XP, 10μΜ, 72 h): 24.5%
- cell viability (kinase inhibitor library screening) ([6]; A375 GP, 1μΜ, 72 h): 30.6%
- cell viability (kinase inhibitor library screening) ([6]; A375 GP, 10μΜ, 72 h): 32.9%
- cell viability (kinase inhibitor library screening) (IGR37 cells (parental); IGR37 Parental, 1μΜ, 72 h): 79.8%
- cell viability (kinase inhibitor library screening) (IGR37 cells (parental); IGR37 Parental, 10μΜ, 72 h): 16.2%

Structure (SMILES): C[C@@H]1COC(Nc2ccc3ncnc(Nc4ccc(OCc5nccs5)c(Cl)c4)c3c2)=N1 [ARRY334543]
- viability at 1 µM [1]: 118%
- viability at 10 µM [1]: 57.2%
- viability at 1 µM (A375 cells (parental)): 103%
- viability at 10 µM (A375 cells (parental)): 89.3%
- viability at 1 µM [2]: 71.6%
- viability at 10 µM [2]: 11.7%
- viability at 1 µM (501Mel cells (parental)): 97.9%
- viability at 10 µM (501Mel cells (parental)): 87.3%
- viability at 1 µM [3]: 101%
- viability at 10 µM [3]: 86.4%
- viability at 1 µM [4]: 89.4%
- viability at 10 µM [4]: 33%
- viability at 1 µM [5]: 107%
- viability at 10 µM [5]: 85.8%
- viability at 1 µM [6]: 101%
- viability at 10 µM [6]: 83.2%
- viability at 1 µM (IGR37 cells (parental)): 102%
- viability at 10 µM (IGR37 cells (parental)): 85.9%

Structure (SMILES): O=C(NC[C@H](O)CO)c1ccncc1Nc1ccc(I)cc1F [AS703026]
- viability at 1 µM [1]: 79.8%
- viability at 10 µM [1]: 56%
- viability at 1 µM (A375 cells (parental)): 18.5%
- viability at 10 µM (A375 cells (parental)): 19.6%
- viability at 1 µM [2]: 52.7%
- viability at 10 µM [2]: 18.8%
- viability at 1 µM (501Mel cells (parental)): 50.1%
- viability at 10 µM (501Mel cells (parental)): 57.6%
- viability at 1 µM [3]: 95.8%
- viability at 10 µM [3]: 78.7%
- viability at 1 µM [4]: 77%
- viability at 10 µM [4]: 59.4%
- viability at 1 µM [5]: 15.5%
- viability at 10 µM [5]: 9.6%
- viability at 1 µM [6]: 18.8%
- viability at 10 µM [6]: 15.8%
- viability at 1 µM (IGR37 cells (parental)): 33.3%
- viability at 10 µM (IGR37 cells (parental)): 35.4%

Source: publication PMC6364417, “Kinase inhibitor library screening identifies synergistic drug combinations effective in sensitive and resistant melanoma cells” (Journal of Experimental & Clinical Cancer Research : CR, 2019)
